From patent publication US9945845B2, “Methods of screening using amphibians” (priority 2009, dated 2018) come the findings set out here.

“Also recorded” adds a separate entry of the source. Like-named read-outs stand apart in the source and are kept apart here.

The test system of data set [1] is Xenopus embryos. The following applies: for edema or other phenotype in compound-treated Xenopus embryos/tadpoles (in words) / Lethality (NF) / Onset (NF): 20 μM, 1% DMSO; for Embr. phen.: embryonic phenotype in the primary screen; for Type of edema Periocular: * = causing bulging eyes, # = bilateral, causing narrow-set eyes; for Lethality: — = no stage of lethality given; for Type of edema Ventral: ‡ = edemas also detected in the gut; for Onset (NF): onset of edema. The essentials:
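Stage 31 (37 hpf) Xenopus embryos, five per well, exposed to 20 µM compound in 1% DMSO at 23 °C for 4 days. Edema, lethality and other external phenotypes were scored daily by two investigators at stages 39, 41, 45 and 47.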

Data set [2] deals with blood vessel development and/or lymphangiogenesis in Xenopus embryos. Type of data set: in vivo, Xenopus laevis. The settings on record: for lymph vessel development phenotype (vegfr3 expression, in words): 20 μM from stage 31, fixed at stage 42; for Blood vessel phenotype / ALH phenotype / ALS phenotype / PLV phenotype / ISV phenotype / PCV phenotype / VVN phenotype / Lymphatic phenotype: Xenopus embryos; for ALH phenotype: anterior lymph heart; for ALS phenotype: anterior lymph sac; for PLV phenotype: posterior lymph vessels; for blood vessel development phenotype (apj expression, in words): 20 μM from stage 31, fixed at stage 35/36; for ISV phenotype: intersomitic vessels; for PCV phenotype: posterior cardinal vein; for VVN phenotype: vitelline vein network. How it is done:
All chemicals were purchased from Sigma and 10-mM stock solutions in DMSO were prepared. Chemicals were used at a final concentration of 20 μM in screening medium to treat homozygous albino Xenopus embryos, which lack natural pigmentation. Chemical treatments of embryos (n=7 per well) was initiated at stage 31 (37 hpf) and terminated at stages 35/36 (50 hpf) or 42 (80 hpf). Embryos were fixed in 4% paraformaldehyde and processed for whole mount in situ hybridization.
Where albino embryos were used, the bleaching step was omitted. Semi-automated whole mount in situ hybridizations were performed using the Biolane HTI machine (Hölle & Hüttner AG, Germany). […] Images were captured using a stereomicroscope (SteREO Lumar V12; Carl Zeiss) equipped with a digital camera (AxioCam Color; Carl Zeiss). Composite figures were organized and labeled using Adobe Photoshop CS2 and Adobe Illustrator CS software.
Edema formation or late-stage lethality may result from excretory system defects, (cardio)vascular and/or lymphatic vascular pathologies. […] Embryos were fixed for in situ hybridization either at stage 35/36 to analyze vasculogenesis and intersomitic vein angiogenesis defects or at stage 42 to evaluate possible defects in lymph vessel development (FIGS. 3-5).

The test system of data set [3] is HUVEC. The data set can be described thus: HUVEC tube formation assay. The class given is cell-based, human. The following applies: 1 μM in 0.1% DMSO, overnight. The protocol:
(§1) Human umbilical vein endothelial cells (HUVEC) were purchased from PromoCell. […] HUVEC and LEC were cultured in endothelial basal medium EBM (Cambrex) supplemented with 20% fetal bovine serum (Invitrogen), antibiotic-antimycotics (100 U/ml penicillin, 100 μg/ml streptomycin, 250 ng/ml amphotericin; Invitrogen). 2 mM L-glutamine (Invitrogen), 10 μg/ml hydrocortisone (Fluka) and 25 μg/ml N^6,2′-O-dibutyryladenosine 3′,5′-cyclic monophosphate sodium salt (Fluka) for up to eleven passages.
(§2) The effect of the selected chemicals on the formation of tube-like structures was performed as follows. […] After overnight incubation at 37° C. the treated cell cultures were fixed with 4% paraformaldehyde. Each chemical treatment was performed in triplicate and the experiment was repeated at least three times. Three representative images of hotspots with tube-like structures were taken per well using a digital camera (AxioCam MRm, Carl Zeiss) mounted on an inverted microscope (Axiovert 200M, Carl Zeiss). The length of the tube-like structures was measured using the IPLab software (BD Biosciences). For each experimental condition, results are represented as average total tube length (μm) per area (three image fields).
(§3) The effects of the selected compounds on endothelial tube formation was assessed after over treatment of LEC and HUVEC cultures at a compound concentration of 1 μM in 0.1% DMSO. The length of the tube-like structures was measured using the IPLab software.

Data set [4] deals with LEC. The data set can be described thus: cells. The class given is cell-based, human. The settings on record: 1 μM in 0.1% DMSO; for LEC tube formation: overnight. The protocol:
as §1, §2, §3

Data set [5] deals with HUVEC. The data set can be described thus: HUVEC cell proliferation assay. Type of data set: cell-based, human. The settings on record: 10 μM in 0.1% DMSO, 48 hours. How it is done: as §1
(§4) The intensity of fluorescence, which is proportional to the number of viable cells, was measured using a microplate reader (SpectraMax Gemini EM; Molecular Devices). The chemical treatments were performed in five replicates.
(§5) The cell proliferation assays were performed by treating the endothelial cell cultures with compounds at a screening dose of 10 μM in 0.1% DMSO for 48 hours (FIG. 6a; Table 10).

Data set [6] concerns LEC. The data set is described as follows: LEC cell proliferation assay. Type of data set: cell-based, human. The following applies: 10 μM in 0.1% DMSO, 48 hours. The protocol: as §1, §4, §5
[7] abbreviates: compounds causing edema, treatment from stage 31, scored to stage 47.
[8] abbreviates: treatment from stage 31, Nieuwkoop & Faber stage.
Setting [9] is: compounds causing lethality, treatment from stage 31, Nieuwkoop & Faber stage.

As to `CN(C)c1cc2c(Nc3ccc4c(cnn4Cc4ccccc4)c3)ncnc2cn1` [GW2974, N4-(1-Benzyl-1H-indazol-5-yl)-N6,N6-dimethyl-pyrido[3,4-d)pyrimidine4-4,6-diamine], the “edema or other phenotype in compound-treated Xenopus embryos/tadpoles (in words)” value in data set [1] (treatment from stage 31) was “enlarged lymph hearts”. In addition, the “Lethality (NF)” value in data set [1] (setting [7]) stood at 47 NF. The Embr. phen. entry in data set [1] is listed as “EDE”. Moreover, in data set [1] (embryonic stage), the Lymph heart enlargement is 45 embryonic stages according to Nieuwkoop and Faber (NF); the “Type of edema Pericordial” value was 41/42; the “Type of edema Periocular” value is recorded as 41/42; the Lethality is 47 embryonic stages according to Nieuwkoop and Faber (NF). Also, the “Type of edema Ventral” value in data set [1] (embryonic stage) is reported as 41/42. The “Onset (NF)” value in data set [1] (setting [8]) is reported as 41/42. In data set [2], the “lymph vessel development phenotype (vegfr3 expression, in words)” value is “inhibiting preferentially lymphatic vascular development; also recorded: lymphangiogenesis was largely suppressed”; the Blood vessel phenotype entry is “normal”; the ALH phenotype result is “stunted”; the ALS phenotype entry is “impaired”. The PLV phenotype entry in data set [2] is on record as “hypoplastic”. Besides, the HUVEC tube formation entry in data set [3] is “− (−, moderate inhibition (50-85% of control):)”. Further, in data set [4], the LEC tube formation entry is listed as “− (−, moderate inhibition (50-85% of control):)”.

Regarding `O=C1Nc2ccc(I)cc2C1=Cc1cc(Br)c(O)c(Br)c1` [GW5074, 3-(3,5-Dibromo-4-hydroxybenzylidine-5-iodo-1,3-dihydro-indol-2-one)], in data set [1] (setting [7]), the “Lethality (NF)” value was 41/42. Also, the Embr. phen. entry in data set [1] is “EDE”. In data set [1] (embryonic stage), the “Type of edema Pericordial” value is reported as 33/34 and the Lethality is reported as 41/42. Further, the “Onset (NF)” value in data set [1] (setting [8]) was 33/34. Moreover, in data set [2], the “blood vessel development phenotype (apj expression, in words)” value (from here on “blood vessel development phenotype”) is listed as “promoting ectopic, premature angiogenesis; also recorded: the VVN was dysplastic”; the ISV phenotype entry is “ectopic”; the PCV phenotype entry is recorded as “normal”; the VVN phenotype entry is “dyspiastic”. In addition, the HUVEC proliferation result in data set [5] was “O (O, inactive or marginal effects (85-115% of control);)”. Besides, in data set [3], the HUVEC tube formation entry is “O (O, inactive or marginal effects (85-115% of control);)”. In data set [4], the “effect on LEC tube formation (in words)” value is on record as “preferentially blocked tube formation in LEC rather than HUVEC cultures” and the LEC tube formation result was “− (−, moderate inhibition (50-85% of control):)”.

On to `C#CCN1C(C)=C(C(=O)OC)C(c2cccc([N+](=O)[O-])c2)C(C(=O)OCC)=C1C` (stereo not shown) [MRS 1845, N-Propargylnitrendipene], for which, in data set [1] (treatment from stage 31), the “edema or other phenotype in compound-treated Xenopus embryos/tadpoles (in words)” value was “enlarged lymph hearts”. Moreover, the “Lethality (NF)” value in data set [1] (setting [7]) was found to be 45 NF. In addition, in data set [1] (embryonic stage), the Lymph heart enlargement is 41/42; the “Type of edema Pericordial” value was 41/42; the “Type of edema Pronephric” value is 41/42; the Lethality is 45 embryonic stages according to Nieuwkoop and Faber (NF). In addition, the “Type of edema Ventral” value in data set [1] (embryonic stage) was 41/42. Besides, the “Onset (NF)” value in data set [1] (setting [8]) is 41/42. Further, the LEC proliferation entry in data set [6] was “O (O, inactive or marginal effects (85-115% of control);)”. For the same compound, the HUVEC tube formation entry in data set [3] is “O (O, inactive or marginal effects (85-115% of control);)”. Besides, in data set [4], the “effect on LEC tube formation (in words)” value is given as “preferentially blocked tube formation in LEC rather than HUVEC cultures” and the LEC tube formation entry was “− (−, moderate inhibition (50-85% of control):)”.

Take `O=C1C(SCCO)=C(SCCO)C(=O)c2ccccc21` [NSC 95397, 2,3-bis[(2-Hydroxyethyl)thio]-1,4-naphthoquinone]: in data set [1] (setting [9]), the “Lethality (NF)” value was found to be 40 NF. For the same compound, in data set [2], the ISV phenotype entry is reported as “impaired”, the PCV phenotype result was “hypoplastic” and the VVN phenotype entry was “hypoplastic”.

On to `CC(C)[C@H](CO)Nc1nc(Nc2cccc(Cl)c2)c2ncn(C(C)C)c2n1` [Purvalanol A], for which the “Lethality (NF)” value in data set [1] (setting [9]) is 41/42. The Embr. phen. result in data set [1] is recorded as “LET”. For the same compound, in data set [2], the “blood vessel development phenotype” value is “only interfered with the assembly of the VVN”; the Lymphatic phenotype entry is “normal”; the ISV phenotype entry is “normal”; the PCV phenotype result was “normal”. Moreover, the VVN phenotype result in data set [2] was “hypoplastic”.

Take `CN(C)S(=O)(=O)c1ccc2c(c1)C(=Cc1cc3c([nH]1)CCCC3)C(=O)N2` [SU 6656, 2,3-Dihydro-N,N-dimethyl-2-oxo-3-[(4,5,6,7-tetrahydro-1H-indol-2-yl)methylene]-1H-indole-5-sulfonamide]: the “Lethality (NF)” value in data set [1] (setting [7]) stood at 46 NF. In data set [1] (embryonic stage), the “Type of edema Pericordial” value is 41/42, the “Type of edema Proctodeal” value is recorded as 39/40, the “Type of edema Pronephric” value is on record as 39/40 and the “Type of edema Periocular” value is on record as 41/42*. In addition, in data set [1] (embryonic stage), the Lethality was 46 embryonic stages according to Nieuwkoop and Faber (NF); the “Type of edema Ventral” value is listed as 39/40. For the same compound, the “Onset (NF)” value in data set [1] (setting [8]) is 39/40. Besides, in data set [2], the “lymph vessel development phenotype (vegfr3 expression, in words)” value is “inhibiting preferentially lymphatic vascular development; also recorded: poorly developed, stunted lymphatics emerging from the ALS and ALH and hypoplastic PLV”; the Blood vessel phenotype entry is “normal”; the ALH phenotype result was “dysplastic”; the ALS phenotype entry is listed as “stunted”. In addition, in data set [2], the PLV phenotype entry is “hypopiastic”.

On to `OCc1ccc(-c2nn(Cc3ccccc3)c3ccccc23)o1` [YC-1, 3-(5′-Hydroxymethyl-2′-fulyl)-1-benzyl indazole], for which, in data set [1], the Embr. phen. result is “EDE”. Further, in data set [1] (setting [8]), the “Onset (NF)” value came out at 45 NF. Also, in data set [2], the “blood vessel development phenotype” value is on record as “dispersed, punctuated patterns of VVN endothelia”; the Lymphatic phenotype result was “normal”; the ISV phenotype entry is listed as “normal”; the PCV phenotype result is “normal”. For the same compound, in data set [2], the VVN phenotype entry is recorded as “hypoplastic”.

With `COc1cc(-c2ccc(=O)[nH]n2)ccc1OC(F)F` [Zardaverine, 6-(4-Difluoromethoxy-3-methoxyphenyl)-3(2H)-pyridazinone], the “Lethality (NF)” value in data set [1] (setting [7]) stood at 43 NF. For the same compound, in data set [1] (embryonic stage), the “Type of edema Pericordial” value is 39/40; the “Type of edema Pronephric” value is reported as 41/42; the Lethality was 43 embryonic stages according to Nieuwkoop and Faber (NF). For the same compound, the “Onset (NF)” value in data set [1] (setting [8]) is on record as 39/40. In data set [2], the “blood vessel development phenotype” value is given as “only interfered with the assembly of the VVN”; the ISV phenotype result is recorded as “normal”; the PCV phenotype result was “normal”; the VVN phenotype result is “hypoplastic”.

Take `CC[C@@H]1/C=C/C=C/C[C@H](C)[C@H](O)[C@](C)(O)C(=O)[C@H](C)[C@@H](O)[C@H](C)C(=O)[C@H](C)[C@@H](O)[C@H](C)/C=C/C(=O)O[C@H]2[C@@H](C)[C@@H](CC1)O[C@@]1(CC[C@@H](C)[C@@H](C[C@H](C)O)O1)[C@@H]2C` [oligomycin A]: the “effect on LEC tube formation (in words)” value in data set [4] is given as “preferentially blocked tube formation in LEC rather than HUVEC cultures”.
